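How tested: cells in 96-well plates exposed to compound for 48 hours at five concentrations. GI50 = concentration required for 50% inhibition of growth.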 Activity calls are given as the source filed them. Cut-off read from the data, not from the text of the source: active = GI50 up to about 1.1 µM and inactive = higher.
Columns and labels:
Experiment in all cases: growth of human tumour cells (NCI), 48 h
786-0 = test system: 786-0
A498 = test system: A498
A549 = test system: A549
ACHN = test system: ACHN
CAKI-1 = test system: CAKI-1
CCRF-CEM = test system: CCRF-CEM
COLO 205 = test system: COLO 205
DLD-1 = test system: DLD-1
DMS-114 = test system: DMS-114
DMS-273 = test system: DMS-273
EKVX = test system: EKVX
HCC 2998 = test system: HCC 2998
HCT-116 = test system: HCT-116
HCT-15 = test system: HCT-15
HL-60 = test system: HL-60
HOP-18 = test system: HOP-18
HOP-62 = test system: HOP-62
HOP-92 = test system: HOP-92
HT-29 = test system: HT-29
IGROV-1 = test system: IGROV-1
K562 = test system: K562
KM-20L2 = test system: KM-20L2
KM12 = test system: KM12
LOX IMVI = test system: LOX IMVI
M14 = test system: M14
M19-MEL = test system: M19-MEL
MOLT-4 = test system: MOLT-4
Malme-3M = test system: Malme-3M
NCI-H226 = test system: NCI-H226
NCI-H23 = test system: NCI-H23
NCI-H460 = test system: NCI-H460
NCI-H522 = test system: NCI-H522
OVCAR-3 = test system: OVCAR-3
OVCAR-4 = test system: OVCAR-4
OVCAR-5 = test system: OVCAR-5
OVCAR-8 = test system: OVCAR-8
RPMI-8226 = test system: RPMI-8226
RXF 393 = test system: RXF 393
RXF 631 = test system: RXF 631
SF-268 = test system: SF-268
SF-295 = test system: SF-295
SF-539 = test system: SF-539
SK-MEL-28 = test system: SK-MEL-28
SK-MEL-2 = test system: SK-MEL-2
SK-MEL-5 = test system: SK-MEL-5
SK-OV-3 = test system: SK-OV-3
SN12C = test system: SN12C
SNB-19 = test system: SNB-19
SNB-75 = test system: SNB-75
SNB-78 = test system: SNB-78
SR = test system: SR
SW-620 = test system: SW-620
TK-10 = test system: TK-10
U-251 = test system: U-251
UACC-257 = test system: UACC-257
UACC-62 = test system: UACC-62
UO-31 = test system: UO-31
LXFL 529 = test system: LXFL 529
BT-549 = test system: BT-549
DU-145 = test system: DU-145
Hs-578T = test system: Hs-578T
MCF7 = test system: MCF7
MDA-MB-231 = test system: MDA-MB-231
MDA-MB-435 = test system: MDA-MB-435
MDA-N = test system: MDA-N
NCI/ADR-RES = test system: NCI/ADR-RES
PC-3 = test system: PC-3
XF498 = test system: XF498

SMILES: O=S(=O)(Cc1ccccc1)SCc1ccccc1
- GI50 (786-0): 22.7 µM (inactive)
- GI50 (A498): 25.3 µM (inactive)
- GI50 (A549): 30.8 µM (inactive)
- GI50 (ACHN): 39.6 µM (inactive)
- GI50 (CAKI-1): > 50.9 µM (inactive)
- GI50 (CCRF-CEM): 3.24 µM (inactive)
- GI50 (COLO 205): 19.5 µM (inactive)
- GI50 (DLD-1): 7.71 µM (inactive)
- GI50 (DMS-114): 17.5 µM (inactive)
- GI50 (DMS-273): 29.9 µM (inactive)
- GI50 (EKVX): 30.2 µM (inactive)
- GI50 (HCC 2998): 17.8 µM (inactive)
- GI50 (HCT-116): 10.1 µM (inactive)
- GI50 (HCT-15): 18.4 µM
- GI50 (HL-60): 5.07 µM (inactive)
- GI50 (HOP-18): 18.9 µM (inactive)
- GI50 (HOP-62): 44.6 µM (inactive)
- GI50 (HOP-92): 18.5 µM (inactive)
- GI50 (HT-29): 25.4 µM (inactive)
- GI50 (IGROV-1): 31.6 µM (inactive)
- GI50 (K562): 4.91 µM (inactive)
- GI50 (KM-20L2): 21.6 µM (inactive)
- GI50 (KM12): 32.4 µM (inactive)
- GI50 (LOX IMVI): 16.6 µM (inactive)
- GI50 (M14): 14.3 µM (inactive)
- GI50 (M19-MEL): 22.2 µM (inactive)
- GI50 (MOLT-4): 3.09 µM (inactive)
- GI50 (Malme-3M): 27.3 µM (inactive)
- GI50 (NCI-H226): 24.5 µM (inactive)
- GI50 (NCI-H23): 23.1 µM (inactive)
- GI50 (NCI-H460): 27.6 µM (inactive)
- GI50 (NCI-H522): 10.7 µM (inactive)
- GI50 (OVCAR-3): 23.4 µM (inactive)
- GI50 (OVCAR-4): 21.2 µM (inactive)
- GI50 (OVCAR-5): > 74 µM (inactive)
- GI50 (OVCAR-8): 15.2 µM (inactive)
- GI50 (RPMI-8226): 13.3 µM (inactive)
- GI50 (RXF 393): 25.8 µM (inactive)
- GI50 (RXF 631): 19.1 µM (inactive)
- GI50 (SF-268): 36.8 µM (inactive)
- GI50 (SF-295): 24.7 µM (inactive)
- GI50 (SF-539): 18.3 µM (inactive)
- GI50 (SK-MEL-28): 34.1 µM (inactive)
- GI50 (SK-MEL-2): 30.4 µM (inactive)
- GI50 (SK-MEL-5): 21.4 µM (inactive)
- GI50 (SK-OV-3): 48.5 µM (inactive)
- GI50 (SN12C): 24.7 µM (inactive)
- GI50 (SNB-19): 33.6 µM (inactive)
- GI50 (SNB-75): 33.9 µM (inactive)
- GI50 (SNB-78): 19.3 µM (inactive)
- GI50 (SR): 10.9 µM (inactive)
- GI50 (SW-620): 4.37 µM (inactive)
- GI50 (TK-10): > 48.1 µM (inactive)
- GI50 (U-251): 26 µM (inactive)
- GI50 (UACC-257): 24.3 µM (inactive)
- GI50 (UACC-62): 23.3 µM (inactive)
- GI50 (UO-31): 61.4 µM (inactive)

SMILES: Cc1cc(N(CCC#N)CCC#N)ccc1/C=C1N=C(/C=C\c2ccccc2)N(c2ccc(C(=O)O)cc2)C\1=O
- GI50 (786-0): > 100 µM (inactive)
- GI50 (A498): > 100 µM (inactive)
- GI50 (A549): > 100 µM (inactive)
- GI50 (ACHN): > 100 µM (inactive)
- GI50 (CAKI-1): > 100 µM (inactive)
- GI50 (CCRF-CEM): > 100 µM (inactive)
- GI50 (COLO 205): > 100 µM (inactive)
- GI50 (DLD-1): > 100 µM (inactive)
- GI50 (DMS-114): > 100 µM (inactive)
- GI50 (HCT-116): > 100 µM (inactive)
- GI50 (HCT-15): > 100 µM
- GI50 (HL-60): > 100 µM (inactive)
- GI50 (HOP-18): > 100 µM (inactive)
- GI50 (HOP-62): > 100 µM (inactive)
- GI50 (HOP-92): > 100 µM (inactive)
- GI50 (HT-29): > 100 µM (inactive)
- GI50 (IGROV-1): > 100 µM (inactive)
- GI50 (K562): > 100 µM (inactive)
- GI50 (KM-20L2): > 100 µM (inactive)
- GI50 (KM12): > 100 µM (inactive)
- GI50 (LOX IMVI): > 100 µM (inactive)
- GI50 (LXFL 529): > 100 µM (inactive)
- GI50 (M14): > 100 µM (inactive)
- GI50 (M19-MEL): > 100 µM (inactive)
- GI50 (MOLT-4): > 100 µM (inactive)
- GI50 (Malme-3M): > 100 µM (inactive)
- GI50 (NCI-H226): > 100 µM (inactive)
- GI50 (NCI-H23): > 100 µM (inactive)
- GI50 (NCI-H460): > 100 µM (inactive)
- GI50 (NCI-H522): > 100 µM (inactive)
- GI50 (OVCAR-3): > 100 µM (inactive)
- GI50 (OVCAR-4): > 100 µM (inactive)
- GI50 (OVCAR-5): > 100 µM (inactive)
- GI50 (OVCAR-8): > 100 µM (inactive)
- GI50 (RPMI-8226): > 100 µM (inactive)
- GI50 (RXF 631): > 100 µM (inactive)
- GI50 (SF-268): > 100 µM (inactive)
- GI50 (SF-295): > 100 µM (inactive)
- GI50 (SF-539): > 100 µM (inactive)
- GI50 (SK-MEL-28): > 100 µM (inactive)
- GI50 (SK-MEL-2): > 100 µM (inactive)
- GI50 (SK-MEL-5): > 100 µM (inactive)
- GI50 (SK-OV-3): > 100 µM (inactive)
- GI50 (SN12C): > 100 µM (inactive)
- GI50 (SNB-19): > 100 µM (inactive)
- GI50 (SNB-75): > 100 µM (inactive)
- GI50 (SNB-78): > 100 µM (inactive)
- GI50 (SR): > 100 µM (inactive)
- GI50 (SW-620): > 100 µM (inactive)
- GI50 (TK-10): > 100 µM (inactive)
- GI50 (U-251): > 100 µM (inactive)
- GI50 (UACC-257): > 100 µM (inactive)
- GI50 (UACC-62): > 100 µM (inactive)
- GI50 (UO-31): > 100 µM (inactive)

SMILES: CCOC(=O)Nc1cc2c(c(N)n1)N=C(c1ccccc1)[C@H](C)N2 [MIVOBULIN ISETHIONATE]
- GI50 (786-0): 0.00215 µM (active)
- GI50 (A498): 0.0299 µM (active)
- GI50 (A549): < 0.0001 µM (active)
- GI50 (ACHN): < 0.0001 µM (active)
- GI50 (BT-549): 0.01 µM (active)
- GI50 (CAKI-1): < 0.0001 µM (active)
- GI50 (CCRF-CEM): < 0.0001 µM (active)
- GI50 (COLO 205): < 0.0001 µM (active)
- GI50 (DLD-1): < 0.0001 µM (active)
- GI50 (DMS-114): < 0.0001 µM (active)
- GI50 (DMS-273): < 0.0001 µM (active)
- GI50 (DU-145): < 0.0001 µM (active)
- GI50 (EKVX): 0.0653 µM (active)
- GI50 (HCC 2998): < 0.0001 µM (active)
- GI50 (HCT-116): < 0.0001 µM (active)
- GI50 (HCT-15): 0.0324 µM
- GI50 (HL-60): < 0.0001 µM (active)
- GI50 (HOP-18): 0.641 µM (active)
- GI50 (HOP-62): 0.0562 µM (active)
- GI50 (HOP-92): 0.01 µM (active)
- GI50 (HT-29): < 0.0001 µM (active)
- GI50 (Hs-578T): < 0.0001 µM (active)
- GI50 (IGROV-1): < 0.0001 µM (active)
- GI50 (K562): < 0.0001 µM (active)
- GI50 (KM-20L2): < 0.0001 µM (active)
- GI50 (KM12): < 0.0001 µM (active)
- GI50 (LOX IMVI): < 0.0001 µM (active)
- GI50 (LXFL 529): < 0.0001 µM (active)
- GI50 (M14): 0.00011 µM (active)
- GI50 (M19-MEL): < 0.0001 µM (active)
- GI50 (MCF7): < 0.0001 µM (active)
- GI50 (MDA-MB-231): < 0.0001 µM (active)
- GI50 (MDA-MB-435): < 0.0001 µM (active)
- GI50 (MDA-N): < 0.0001 µM (active)
- GI50 (MOLT-4): < 0.0001 µM (active)
- GI50 (Malme-3M): < 0.0001 µM (active)
- GI50 (NCI-H226): 0.00215 µM (active)
- GI50 (NCI-H23): 0.00161 µM (active)
- GI50 (NCI-H460): < 0.0001 µM (active)
- GI50 (NCI-H522): < 0.0001 µM (active)
- GI50 (NCI/ADR-RES): < 0.0001 µM (active)
- GI50 (OVCAR-3): 0.000468 µM (active)
- GI50 (OVCAR-4): 0.00363 µM (active)
- GI50 (OVCAR-5): 23 µM (inactive)
- GI50 (OVCAR-8): < 0.0001 µM (active)
- GI50 (PC-3): < 0.0001 µM (active)
- GI50 (RPMI-8226): 0.000215 µM (active)
- GI50 (RXF 393): < 0.0001 µM (active)
- GI50 (SF-268): < 0.0001 µM (active)
- GI50 (SF-295): < 0.0001 µM (active)
- GI50 (SK-MEL-2): < 0.0001 µM (active)
- GI50 (SK-MEL-5): < 0.0001 µM (active)
- GI50 (SK-OV-3): 17.4 µM (inactive)
- GI50 (SN12C): 0.0475 µM (active)
- GI50 (SNB-19): < 0.0001 µM (active)
- GI50 (SNB-75): 0.000215 µM (active)
- GI50 (SNB-78): 0.01 µM (active)
- GI50 (SR): < 0.0001 µM (active)
- GI50 (SW-620): < 0.0001 µM (active)
- GI50 (TK-10): 0.00273 µM (active)
- GI50 (U-251): 0.0369 µM (active)
- GI50 (UACC-257): 0.00215 µM (active)
- GI50 (UACC-62): < 0.0001 µM (active)
- GI50 (UO-31): 0.000303 µM (active)
- GI50 (XF498): < 0.0001 µM (active)
